“Also recorded” adds a separate entry of the source.
Experiments:
[1] = test system: NLRP3 inflammasome; assay: IL-1β release in PBMCs after NLRP3 inflammasome activation; type: cell-based, human; settings: for effect on IL-1β release (in words): all stimulatory conditions (MSU, nigericin, ATP), vs DMSO; for IL-1β reduction as compared to DMSO: compound 24 h, LPS 0.2 ng/ml 4 h
Procedure: Figure 3 Effect of […] mediated HDAC6 degradation on NLRP3 inflammasome activation in PBMCs.A, schematic of the mode of action of an HDAC6 degrader. The PROTAC engages both HDAC6 and the E3 ligase cereblon (CRBN), which then leads to ubiquitination and degradation of HDAC6. […] PBMCs (without or with LPS priming for 4 h) were treated with the indicated compounds and HDAC6 levels were detected by immunoblotting with an anti-HDAC6 antibody. Detection of actin was used as a control for loading. CGP, CGP084892 (Caspase-1 inhibitor); AFN700 is an inhibitor of the NF-kB pathway (IKK inhibitor). E, HDAC6 degradation impact on IL-1β release in PBMCs following MSU 200 μg/ml (5 h), nigericin 2 μM (2 h) or ATP 3 mM (0.5 h) treatment. Cells were first primed with 0.2 ng/ml LPS for 4 h at 37 °C, then treated with MSU, nigericin, and ATP as indicated.
Human IL-1β and IL-18 were determined with Cisbio HTRF Cisbio Human IL1β (#62HIL1BPET) and Human IL18 (#62HIL18PEG) protocols. All the data were from 3 or 4 independent biological replicates.
For BMDM cells, 1.5 × 10^6 cells per well were seeded in six-well plates. After priming with 1 μg/ml LPS (Invivogen #tlrl-b5lps), cells were challenged with 200 μg/ml MSU crystals (Invivogen #tlrl-msu-25) for 6 h or 20 μM nigericin (Sigma-Aldrich #N7143-5MG) for 30 min. […] The supernatant was removed, and fresh medium was added to have cells at a density of around 5 × 10^5 cells/ml. 100 μl cells were seeded in 96-well plate and incubated for 1∼2 days. During the culturing, dTAG was added when needed to degrade the DARPin. […] For PBMCs, 3 × 10^4 cells per were seeded, and primed with 0.2 ng/ml LPS for 4 h and then incubated with MSU 200 μg/ml (5 h), nigericin 2 μM (2 h) or ATP 3 mM (0.5 h). For pyrin inflammasome, U937-pyrin cells were seeded in 96 well after 0.5 μM PMA treatment for 3 h and then challenged by BAA473 (200 μM) for 4 h at 37 °C.

[2] = test system: pyrin inflammasome; assay: IL-18 release in U937-pyrin cells after BAA473 activation; type: cell-based, human; settings: BAA473 200 μM 4 h, vs DMSO or XY-07-191 control
Procedure: Cells were treated with the indicated compounds and HDAC6 was detected by immunoblotting with an anti-HDAC6 antibody. Detection of actin was used as a control for protein loading. […] Pyrin inflammasome was activated by BAA473 (200 μM) for 4 h at 37 °C. […] The graph at the bottom presents IL-18 release based on four independent experiments.

[3] = test system: U937-pyrin cells; assay: Cell viability (resazurin) of U937-pyrin cells, pyroptosis; type: cell-based, human; settings: BAA473 activation, resazurin assay
Procedure: Cell viability of PBMCs and U937 cells was checked with PrestoBlue HS Cell Viability Reagent (Invitrogen # P50200) according to the manufacturer’s instructions. After incubation for 1 to 2 h, fluorescence was determined with a PheraStar plate reader under Ex/Em = 540/590 nm.
Supplementary file mmc1.pdf: Supporting Figure S1 BMDM cells were primed by LPS (1 μg/ml) for 4 hrs and then challenged with 20 μM nigericin. 50 μl supernatant was collected every 15 min (up to 90 min) and mIL-1β level was determined by HTRF assay. […] Supporting Figure S2: A, immunoblot of HDAC1, HDAC2 and HDAC6 protein level in WT THP-1 cells vs DMSO or dTAG treated F10-FKBP^F36V THP-1 cells. DARPin F10 was detected by anti-HA antibody. B, FKBP^F36V THP-1 cells were established for evaluating the possible effect of dTAG on IL-1β release. Cells were first treated with PMA (0.5 μM) for 3 hr, then medium was changed and vehicle or dTAG was added (1 μM), followed by 20 μM nigericin for 3 hr. Supporting Figure S3: A, CTG cell viability assay to analyze degrader XY-07-035 toxicity in HEK293T, Jurkat and U937 cells. Cells were treated with different concentrations of the degrader, and cell viability determined by CTG assay was normalized to the non-treated group. […] Supporting Figure S4: Cell viability was measured by resazurin assay, and fluorescence intensity was a representative of the viability.

[4] = target: T1, HDAC6 (Homo sapiens, UniProt Q9UBN7); parameters: method as in PMID 34314730; settings: cited from earlier work
T1 sequence (Q9UBN7 1-1215): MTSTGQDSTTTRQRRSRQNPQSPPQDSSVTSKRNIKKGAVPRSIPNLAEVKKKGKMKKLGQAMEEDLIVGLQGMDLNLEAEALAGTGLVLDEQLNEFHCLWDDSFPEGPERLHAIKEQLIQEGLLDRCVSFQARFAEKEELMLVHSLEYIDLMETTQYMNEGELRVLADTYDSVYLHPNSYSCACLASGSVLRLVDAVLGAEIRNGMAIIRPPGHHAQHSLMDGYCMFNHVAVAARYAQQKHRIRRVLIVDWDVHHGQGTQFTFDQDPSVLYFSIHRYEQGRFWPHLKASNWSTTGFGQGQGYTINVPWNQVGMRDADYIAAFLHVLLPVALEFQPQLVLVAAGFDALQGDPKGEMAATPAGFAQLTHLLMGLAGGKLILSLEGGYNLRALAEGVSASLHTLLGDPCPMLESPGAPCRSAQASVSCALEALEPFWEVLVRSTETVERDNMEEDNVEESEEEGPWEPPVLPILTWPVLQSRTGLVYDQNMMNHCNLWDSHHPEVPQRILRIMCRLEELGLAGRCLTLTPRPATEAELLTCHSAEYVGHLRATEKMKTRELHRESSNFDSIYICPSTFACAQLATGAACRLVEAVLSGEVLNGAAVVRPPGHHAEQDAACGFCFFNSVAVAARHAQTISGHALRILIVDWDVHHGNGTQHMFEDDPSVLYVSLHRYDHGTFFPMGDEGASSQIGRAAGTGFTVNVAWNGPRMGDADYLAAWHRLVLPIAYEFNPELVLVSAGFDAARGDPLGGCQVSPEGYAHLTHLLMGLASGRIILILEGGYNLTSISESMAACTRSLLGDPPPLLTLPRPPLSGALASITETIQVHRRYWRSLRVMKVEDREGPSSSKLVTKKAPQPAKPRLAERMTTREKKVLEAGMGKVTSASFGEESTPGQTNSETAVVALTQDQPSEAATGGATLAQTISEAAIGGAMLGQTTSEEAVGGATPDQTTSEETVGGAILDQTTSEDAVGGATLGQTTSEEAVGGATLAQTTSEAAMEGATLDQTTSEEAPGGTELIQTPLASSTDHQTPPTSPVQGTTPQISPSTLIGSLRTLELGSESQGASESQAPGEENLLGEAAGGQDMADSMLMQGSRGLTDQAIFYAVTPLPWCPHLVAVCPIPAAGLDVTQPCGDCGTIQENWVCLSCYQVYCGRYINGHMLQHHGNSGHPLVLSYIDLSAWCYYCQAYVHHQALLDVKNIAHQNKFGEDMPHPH

CN(C(=O)CCCNc1cccc2c1C(=O)N(C1CCC(=O)NC1=O)C2=O)c1ccc(NC(=O)CCCCCCC(=O)NO)cc1 (stereo not drawn) [XY-07-35]
effect on IL-1β release (in words) [1]: clearly reduced | IL-1β reduction as compared to DMSO ([1]; ATP 3 mM 0.5 h): 40% | IL-1β reduction as compared to DMSO ([1]; MSU 200 μg/ml 5 h): ca. 60% | IL-1β reduction as compared to DMSO ([1]; nigericin 2 μM 2 h): 40% | change in IL-18 secretion [2]: did not result in any change | cell viability / protection from pyroptosis [3]: did not protect cells from pyroptosis; also recorded: No significant difference | degradation profile (specificity) [4]: highly specific for HDAC6

CN1C(=O)CCC(N2C(=O)c3cccc(NCCCC(=O)N(C)c4ccc(NC(=O)CCCCCCC(=O)NO)cc4)c3C2=O)C1=O (stereo not drawn) [XY-07-191]
effect on IL-1β release (in words) [1]: partial inhibition | cell viability / protection from pyroptosis [3]: No significant difference

Source: paper PMC10850954, “HDAC6/aggresome processing pathway importance for inflammasome formation is context-dependent” (The Journal of Biological Chemistry, 2024)
